From ChEMBL document CHEMBL4190326, “Novel Gomisin B analogues as potential cytotoxic agents: Design, synthesis, biological evaluation and docking studies” (Eur J Med Chem, 2017) come the findings set out here.

The structures appear in SMILES notation.

One series relates to SiHa. Nature of the series: Cytotoxicity against human SiHa cells assessed as reduction in cell viability measured after 48 hrs by SRB assay. Type of series: functional, cell-based. A general note: The SRB assay estimates cell density from bound dye.
In the next series the test system is IMR-32. The series can be described thus: Cytotoxicity against human IMR32 cells assessed as reduction in cell viability measured after 48 hrs by SRB assay. The format is functional, cell-based. The following applies: IMR-32, 48 h.
The next series concerns MDA-MB-231. Nature of the series: Cytotoxicity against human MDA-MB-231 cells assessed as reduction in cell viability measured after 48 hrs by SRB assay. The format is functional, cell-based. To be noted: MDA-MB-231, 48 h.
A further series relates to A549. Nature of the series: Cytotoxicity against human A549 cells assessed as reduction in cell viability measured after 48 hrs by SRB assay. To be noted: A549, 48 h. The format is functional, cell-based.
A further series has as its system HEK293. Nature of the series: Cytotoxicity against HEK293 cells assessed as reduction in cell viability measured after 48 hrs by SRB assay. The following applies: Homo sapiens, HEK293, 48 h. The format is cell-based.
For the next series, the system named is DU-145. The series can be described thus: Cytotoxicity against human DU145 cells assessed as reduction in cell viability measured after 48 hrs by SRB assay. Type of series: functional, cell-based. The following applies: DU-145, 48 h.
Series [1] in a line: Selectivity index, ratio of IC50 for HEK293 cells to IC50 for human DU145 cells. To be noted: HEK293 cells versus DU145 cells, read-out: Ratio IC50. The format is toxicity.
The next series relates to PANC-1. Nature of the series: Cytotoxicity against human PANC1 cells assessed as reduction in cell viability measured after 48 hrs by SRB assay. The format is functional, cell-based. The following applies: PANC-1, 48 h.

A word on the IC50: it is the concentration that inhibits the measured activity by half. For `COc1ccc(OC)c(-n2cc(CO/N=C3\c4cc(OC)c(OC)c(OC)c4-c4c(cc5c(c4OC)OCO5)C[C@H](C)[C@@]3(C)O)nn2)c1`, the IC50 with SiHa was 74.3 µM; with IMR-32, 76.5 µM; in the series with MDA-MB-231 it was 73.8 µM; with A549 it was 91.8 µM; in the series with HEK293, above 100 µM; in the series on DU-145, 86.7 µM. Besides, the IC50 in the series on PANC-1 was 81.2 µM. Also, the selectivity ratio in series [1] came to 1.1.
For `COc1cc2c(c(OC)c1OC)-c1c(cc3c(c1OC)OCO3)C[C@H](C)[C@@](C)(O)/C2=N/OCc1cn(-c2cccc([N+](=O)[O-])c2)nn1`, the IC50 in the series on SiHa is 96.5 µM; in the series on IMR-32 it was 86.1 µM; with MDA-MB-231 it was 83.7 µM; in the series with A549 it was 96.1 µM; in the series on HEK293 it was above 100 µM; with DU-145 it was 98.4 µM. Further, the half-maximal inhibitory concentration (IC50) with PANC-1 amounted to 95.7 µM. Moreover, in series [1], the selectivity ratio was determined as 1.
For `COc1cc2c(c(OC)c1OC)-c1c(cc3c(c1OC)OCO3)C[C@H](C)[C@@](C)(O)/C2=N/O`, the IC50 in the series with SiHa was 83.4 µM; in the series on IMR-32 it was 81.4 µM; in the series with MDA-MB-231, 79.5 µM; in the series on A549, 96.4 µM; with HEK293, above 100 µM; in the series with DU-145, 94.7 µM. Besides, in the series with PANC-1, the IC50 is 84.9 µM. Moreover, in series [1], the selectivity ratio stood at 1.05.
For the molecule `C#CCO/N=C1\c2cc(OC)c(OC)c(OC)c2-c2c(cc3c(c2OC)OCO3)C[C@H](C)[C@@]1(C)O`, the IC50 was 96.1 µM in the series with SiHa; 82.6 µM with IMR-32; 80.4 µM in the series with MDA-MB-231; 98.1 µM in the series on A549; above 100 µM with HEK293; 99.5 µM in the series with DU-145. Besides, the concentration for half-maximal inhibition (IC50) in the series on PANC-1 was 97.2 µM. Also, the selectivity ratio in series [1] worked out at 1.01.
`COc1cc2c(c(OC)c1OC)-c1c(cc3c(c1OC)OCO3)C[C@H](C)[C@@](C)(O)/C2=N/OCc1cn(-c2cc([N+](=O)[O-])ccc2Cl)nn1`: the IC50 with SiHa is 94.5 µM; in the series with IMR-32 it was 86.4 µM; in the series on MDA-MB-231 it was 85.7 µM; in the series on A549, 96.4 µM; in the series on HEK293, above 100 µM; in the series with DU-145 it was 95.1 µM. Further, the IC50 with PANC-1 was found to be 93.4 µM. The selectivity ratio in series [1] came out at 1.1.
As to `COc1cc2c(c(OC)c1OC)-c1c(cc3c(c1OC)OCO3)C[C@H](C)[C@@](C)(O)/C2=N/OCc1cn(CC(=O)Nc2ccc(C)cc2)nn1`, the IC50 with SiHa was 64.9 µM; in the series on IMR-32 it was 79.2 µM; in the series with MDA-MB-231 it was 72.6 µM; in the series with A549, 84.6 µM; in the series on HEK293, above 100 µM; with DU-145 it was 86.4 µM. Besides, the IC50 with PANC-1 amounted to 71.6 µM. Also, the selectivity ratio in series [1] was found to be 1.15.
In the case of `COc1cc(-n2cc(CO/N=C3\c4cc(OC)c(OC)c(OC)c4-c4c(cc5c(c4OC)OCO5)C[C@H](C)[C@@]3(C)O)nn2)cc(OC)c1Cl`, the IC50 with SiHa was 83.2 µM; with IMR-32, 79.1 µM; in the series with MDA-MB-231 it was 73.2 µM; in the series with A549 it was 94.2 µM; in the series with HEK293 it was above 100 µM; in the series on DU-145 it was 94.7 µM. In the series on PANC-1, the IC50 turned out to be 86.4 µM. Besides, the selectivity ratio in series [1] stood at 1.1.
For `CCc1ccc(-n2cc(CO/N=C3\c4cc(OC)c(OC)c(OC)c4-c4c(cc5c(c4OC)OCO5)C[C@H](C)[C@@]3(C)O)nn2)cc1`, the IC50 with SiHa was 89.7 µM; in the series with IMR-32, 75.8 µM; with MDA-MB-231 it was 79.1 µM; with A549 it was 93.8 µM; with HEK293, above 100 µM; in the series with DU-145, 91.7 µM. In addition, the IC50 with PANC-1 came out at 83.4 µM. For the same molecule, the selectivity ratio in series [1] amounted to 1.1.
Turning to `COc1cc2c(c(OC)c1OC)-c1c(cc3c(c1OC)OCO3)C[C@H](C)[C@@](C)(O)/C2=N/OCc1cn(CC(=O)Nc2ccc(I)cc2Cl)nn1`, the half-maximal inhibitory concentration (IC50) is 86.4 µM in the series with SiHa; 81.6 µM in the series with IMR-32; 82.9 µM in the series on MDA-MB-231; 97.5 µM with A549; above 100 µM in the series with HEK293; 98.7 µM in the series with DU-145. The IC50 in the series with PANC-1 came out at 92.1 µM. Further, the selectivity ratio in series [1] stood at 1.01.
With `COc1cc(OC)c(-n2cc(CO/N=C3\c4cc(OC)c(OC)c(OC)c4-c4c(cc5c(c4OC)OCO5)C[C@H](C)[C@@]3(C)O)nn2)cc1OC`, the half-inhibitory concentration (IC50) is 69.5 µM in the series on SiHa; 76.8 µM with IMR-32; 72.8 µM in the series with MDA-MB-231; 87.5 µM with A549; above 100 µM with HEK293; 86.2 µM with DU-145. In addition, the IC50 with PANC-1 is 76.8 µM. Besides, in series [1], the selectivity ratio came to 1.1.
With `COc1cccc(-n2cc(CO/N=C3\c4cc(OC)c(OC)c(OC)c4-c4c(cc5c(c4OC)OCO5)C[C@H](C)[C@@]3(C)O)nn2)c1`, the IC50 in the series with SiHa was 92.1 µM; in the series on IMR-32, 77.4 µM; with MDA-MB-231 it was 82.1 µM; in the series with A549, 96.4 µM; in the series with HEK293, above 100 µM; in the series on DU-145, 95.8 µM. Also, in the series on PANC-1, the IC50 was 98 µM. The selectivity ratio in series [1] came to 1.1.
With `COc1cc2c(c(OC)c1OC)-c1c(cc3c(c1OC)OCO3)C[C@H](C)[C@@](C)(O)/C2=N/OCc1cn(CC(=O)Nc2ccccc2)nn1`, the IC50 is 88.6 µM in the series on SiHa; 86.3 µM with IMR-32; 79.8 µM in the series on MDA-MB-231; 93.7 µM in the series on A549; above 100 µM in the series on HEK293; 91.5 µM with DU-145. Further, in the series on PANC-1, the IC50 turned out to be 91.1 µM. In addition, the selectivity ratio in series [1] was 1.1.
On to `COc1cc2c(c(OC)c1OC)-c1c(cc3c(c1OC)OCO3)C[C@H](C)[C@@](C)(O)/C2=N/OCc1cn(-c2ccc(C(C)=O)cc2)nn1`, for which the IC50 with SiHa is 71.1 µM; with IMR-32, 86.4 µM; in the series on MDA-MB-231 it was 70.8 µM; with A549, 95.7 µM; in the series with HEK293, above 100 µM; with DU-145, 92.4 µM. Further, the half-inhibitory concentration (IC50) in the series on PANC-1 came out at 80.3 µM. Moreover, the selectivity ratio in series [1] came to 1.08.
Turning to `COc1cc2c(c(OC)c1OC)-c1c(cc3c(c1OC)OCO3)C[C@H](C)[C@@](C)(O)/C2=N/OCc1cn(-c2ccc(I)cc2)nn1`, the IC50 in the series with SiHa is 76.4 µM; with IMR-32, 89.7 µM; with MDA-MB-231 it was 76.8 µM; in the series with A549 it was 90.8 µM; with HEK293, above 100 µM; in the series on DU-145, 89.4 µM. The IC50 with PANC-1 is 83.4 µM. Besides, the selectivity ratio in series [1] is 1.1.
With `COc1cc2c(c(OC)c1OC)-c1c(cc3c(c1OC)OCO3)C[C@H](C)[C@@](C)(O)/C2=N/OCc1cn(-c2ccc(Cl)cc2)nn1`, the half-maximal inhibitory concentration (IC50) in the series with SiHa is 98.5 µM; in the series on IMR-32 it was 83.9 µM; with MDA-MB-231 it was 82.6 µM; with A549, above 100 µM; with HEK293, above 100 µM; in the series with DU-145 it was 99.4 µM. Also, the 50% inhibitory concentration (IC50) in the series on PANC-1 was determined as 92.7 µM. Further, the selectivity ratio in series [1] is 1.01.
Regarding `COc1cccc2c1C(=O)c1c(O)c3c(c(O)c1C2=O)C[C@@](O)(C(=O)CO)C[C@@H]3O[C@H]1C[C@H](N)[C@H](O)[C@H](C)O1` [DOXORUBICIN], the IC50 in the series with SiHa is 1.5 µM; with IMR-32, 2.3 µM; in the series with A549, 1.6 µM; with HEK293, 10 µM; in the series on DU-145, 2.4 µM; in the series with PANC-1, 1.9 µM.
